IC50, EC50 and Kd data for 23 compounds are collected here from patent US8618289B2 (Ambit Biosciences Corporation, priority 2008, dated 2013).

SMILES strings stand for the structures.

The subject of experiment [1] is MEK1 phosphorylation in the A375 human melanoma cell line. Description: cells. The settings on record: A-375, read-out: pMEK IC50.
The test system of the next experiment is A375 cells. In words: cells. The settings on record: Homo sapiens, A-375, read-out: A375 Viability EC50.
For experiment [2], the target named is RAF kinases (Homo sapiens, UniProt P04049). Description: biochemical.
Experiment [3] deals with RAF kinases (Homo sapiens, UniProt P15056). In words: biochemical.
Experiment [4] concerns the target RAF kinases (Homo sapiens, UniProt P15056, V600E). In words: biochemical.

Sequence of RAF kinases (Homo sapiens, UniProt P04049) (P04049 whole entry): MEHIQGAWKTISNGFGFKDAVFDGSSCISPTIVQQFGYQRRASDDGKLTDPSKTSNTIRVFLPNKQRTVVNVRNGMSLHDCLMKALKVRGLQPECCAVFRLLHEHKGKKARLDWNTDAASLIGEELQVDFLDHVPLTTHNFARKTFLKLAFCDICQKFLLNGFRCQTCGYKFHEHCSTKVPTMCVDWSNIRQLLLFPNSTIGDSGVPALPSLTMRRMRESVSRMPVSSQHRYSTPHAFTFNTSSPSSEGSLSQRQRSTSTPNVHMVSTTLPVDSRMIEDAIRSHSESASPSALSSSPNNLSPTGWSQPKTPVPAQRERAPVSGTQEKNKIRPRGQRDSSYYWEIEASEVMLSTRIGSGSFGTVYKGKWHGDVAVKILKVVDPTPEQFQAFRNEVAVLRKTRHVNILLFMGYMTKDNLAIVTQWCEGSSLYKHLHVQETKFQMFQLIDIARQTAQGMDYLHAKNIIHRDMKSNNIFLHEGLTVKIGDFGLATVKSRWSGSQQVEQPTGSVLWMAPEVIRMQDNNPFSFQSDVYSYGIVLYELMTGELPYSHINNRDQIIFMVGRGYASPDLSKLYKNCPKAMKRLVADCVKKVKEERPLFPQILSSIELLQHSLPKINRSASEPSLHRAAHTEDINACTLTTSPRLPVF
Sequence of RAF kinases (Homo sapiens, UniProt P15056, V600E) (P15056 whole entry V600E): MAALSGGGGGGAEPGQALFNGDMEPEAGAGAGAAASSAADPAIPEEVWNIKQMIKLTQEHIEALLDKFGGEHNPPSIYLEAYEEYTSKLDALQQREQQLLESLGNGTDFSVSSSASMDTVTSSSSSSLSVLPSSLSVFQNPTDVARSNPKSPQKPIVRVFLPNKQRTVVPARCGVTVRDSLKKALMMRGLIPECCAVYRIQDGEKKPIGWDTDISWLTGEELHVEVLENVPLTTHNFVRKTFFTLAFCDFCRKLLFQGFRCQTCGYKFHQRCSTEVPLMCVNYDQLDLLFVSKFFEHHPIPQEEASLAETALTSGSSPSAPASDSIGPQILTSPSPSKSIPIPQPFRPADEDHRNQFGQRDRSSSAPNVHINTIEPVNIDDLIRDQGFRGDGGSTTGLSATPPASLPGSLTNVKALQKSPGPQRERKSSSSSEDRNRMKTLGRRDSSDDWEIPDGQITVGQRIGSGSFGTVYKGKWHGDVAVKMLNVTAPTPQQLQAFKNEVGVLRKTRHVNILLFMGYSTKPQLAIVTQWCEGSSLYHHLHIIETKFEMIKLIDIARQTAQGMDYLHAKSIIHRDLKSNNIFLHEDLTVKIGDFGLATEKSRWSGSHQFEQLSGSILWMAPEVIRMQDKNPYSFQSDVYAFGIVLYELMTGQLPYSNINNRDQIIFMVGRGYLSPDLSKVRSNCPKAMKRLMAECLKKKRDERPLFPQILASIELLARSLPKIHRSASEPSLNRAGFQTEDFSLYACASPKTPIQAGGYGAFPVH
Sequence of RAF kinases (Homo sapiens, UniProt P15056) (P15056 whole entry): as the sequence (P15056 whole entry V600E) above, with E600V counted along it

`COc1cc2ncnc(Oc3cccc(NC(=O)Nc4cc(C(C)(C)F)no4)c3)c2cc1OCCCS(C)(=O)=O` [Ex 42, 1-(3-(2-fluoropropan-2-yl)isoxazol-5-yl)-3-(3-(7-methoxy-6-(3-(methylsulfonyl)propoxy)quinazolin-4-yloxy)phenyl)urea]: the IC50 in experiment [1] is 250 to 500 nM. Further, the half-maximal effective concentration (EC50) with A375 cells is 500 to 1000 nM. Moreover, the dissociation constant Kd at RAF kinases [2], on RAF kinases [3] and at RAF kinases [4] was under 250 nM each time.
Consider `CCOc1cc2ncnc(Sc3cccc(NC(=O)Nc4cc(C(C)(C)C)on4)c3)c2cc1OC` [Ex 50, 1-(5-tert-butylisoxazol-3-yl)-3-[3-(7-ethoxy-6-methoxyquinazolin-4-ylthio)phenyl]urea], for which the IC50 in experiment [1] was 250 to 500 nM. Also, in the experiment with A375 cells, the EC50 is over 1000 nM. The Kd at RAF kinases [2] fell in the range of 250 to 500 nM; on RAF kinases [3], 500 to 1000 nM; at RAF kinases [4] it was 250 to 500 nM.
For the compound `COCCOc1ccc2ncnc(Sc3cccc(NC(=O)Nc4cc(C(C)(C)C)on4)c3)c2c1` [Ex 87, 1-(5-tert-butylisoxazol-3-yl)-3-(3-(6-(2-methoxyethoxy)quinazolin-4-ylthio)phenyl)urea], the half-maximal inhibitory concentration (IC50) in experiment [1] was in the range of 250 to 500 nM. The EC50 in the experiment with A375 cells was over 1000 nM. Moreover, the values for the Kd on RAF kinases [2] and on RAF kinases [4] were 500 to 1000 nM and 250 to 500 nM, respectively.
For `COc1cc(OC2CCOCC2)c2c(Oc3cccc(NC(=O)Nc4cc(C(C)(C)C)on4)c3)ncnc2c1` [Ex 94, 1-(5-tert-butylisoxazol-3-yl)-3-{3-[7-methoxy-5-(tetrahydro-2H-pyran-4-yloxy)quinazolin-4-yloxy]phenyl}urea], the IC50 in experiment [1] is 250 to 500 nM. Further, in the experiment on A375 cells, the EC50 is over 1000 nM. Moreover, the dissociation constant Kd at RAF kinases [2] and at RAF kinases [4] was 250 to 500 nM each time.
Turning to `COc1cc(NC(=O)Nc2cccc(Sc3ncnc4cc(OC)c(OC)cc34)c2)cc(C(F)(F)F)c1` [Ex 115, 1-(3-(6,7-dimethoxyquinazolin-4-ylthio)phenyl)-3-(3-methoxy-5-(trifluoromethyl)phenyl)urea], the IC50 in experiment [1] is over 1000 nM. For the same compound, the EC50 in the experiment on A375 cells was over 1000 nM. For the same compound, the Kd on RAF kinases [2] lay in the range of 250 to 500 nM; at RAF kinases [3], 500 to 1000 nM; on RAF kinases [4], 250 to 500 nM.
Consider `COc1cc(NC(=O)Nc2cccc(Oc3ncnc4cc(OC)c(OC)cc34)c2)cc(C(F)(F)F)c1` [Ex 116, 1-(3-(6,7-dimethoxyquinazolin-4-yloxy)phenyl)-3-(3-methoxy-5-(trifluoromethyl)phenyl)urea], for which the 50% inhibitory concentration (IC50) in experiment [1] was over 1000 nM. Also, in the experiment on A375 cells, the EC50 is over 1000 nM. Moreover, the dissociation constant Kd lay in the range of 250 to 500 nM at RAF kinases [2], 500 to 1000 nM on RAF kinases [3] and 250 to 500 nM on RAF kinases [4].
`COCCOc1cc(NC(=O)Nc2cccc(Oc3ncnc4cc(OCCOC)c(OC)cc34)c2)cc(C(F)(F)F)c1` [Ex 117, 1-(3-(6-methoxy-7-(2-methoxyethoxy)quinazolin-4-yloxy)phenyl)-3-(3-(2-methoxyethoxy)-5-(trifluoromethyl)phenyl)urea]: the half-inhibitory concentration (IC50) in experiment [1] was over 1000 nM. Besides, in the experiment with A375 cells, the EC50 was over 1000 nM. Moreover, the values for the Kd at RAF kinases [2], at RAF kinases [3] and on RAF kinases [4] were 250 to 500 nM, 500 to 1000 nM and 250 to 500 nM, respectively.
For `COc1cc2ncnc(Oc3cccc(NC(=O)Nc4cc(C5CCOCC5)no4)c3)c2cc1OC` [Ex 123, 1-(3-(6,7-dimethoxyquinazolin-4-yloxy)phenyl)-3-(3-(tetrahydro-2H-pyran-4-yl)isoxazol-5-yl)urea], the IC50 in experiment [1] is over 1000 nM. Moreover, in the experiment on A375 cells, the EC50 was over 1000 nM. Also, the dissociation constant (Kd) at RAF kinases [2] lay in the range of 500 to 1000 nM; on RAF kinases [4] it was 250 to 500 nM.
In the case of `COc1cc2ncnc(Oc3cccc(NC(=O)Nc4cc(C(C)(C)C#N)no4)c3)c2cc1OC` [Ex 125, 1-(3-(2-cyanopropan-2-yl)isoxazol-5-yl)-3-(3-(6,7-dimethoxyquinazolin-4-yloxy)phenyl)urea], the IC50 in experiment [1] is 250 to 500 nM. The EC50 with A375 cells is over 1000 nM. In addition, the Kd was 250 to 500 nM on RAF kinases [2], 250 to 500 nM at RAF kinases [3] and under 250 nM at RAF kinases [4].
As for `COc1cc2ncnc(Oc3cccc(NC(=O)Nc4cc(C(C)(C)F)no4)c3)c2cc1OC` [Ex 126, 1-(3-(6,7-dimethoxyquinazolin-4-yloxy)phenyl)-3-(3-(2-fluoropropan-2-yl)isoxazol-5-yl)urea], the IC50 in experiment [1] was under 250 nM. Also, the EC50 with A375 cells was in the range of 500 to 1000 nM. In addition, the dissociation constant (Kd) at RAF kinases [2] was under 250 nM; at RAF kinases [3] it was 250 to 500 nM; at RAF kinases [4], under 250 nM.
For `COCCOc1cc(NC(=O)Nc2cccc(Oc3ncnc4cc(OC)c(OC)cc34)c2)cc(C(F)(F)F)c1` [Ex 129, 1-(3-(6,7-dimethoxyquinazolin-4-yloxy)phenyl)-3-(3-(2-methoxyethoxy)-5-(trifluoromethyl)phenyl)urea], in experiment [1], the concentration for half-maximal inhibition (IC50) is over 1000 nM. Besides, the half-maximal effective concentration (EC50) in the experiment on A375 cells is over 1000 nM. Further, the Kd at RAF kinases [2] and on RAF kinases [4] was 250 to 500 nM each time.
For the compound `COc1cc2ncnc(Oc3cccc(NC(=O)Nc4cc(C5(C(F)(F)F)CC5)nn4-c4ccccc4)c3)c2cc1OC` [Ex 137, 1-(3-(6,7-dimethoxyquinazolin-4-yloxy)phenyl)-3-(1-phenyl-3-(1-(trifluoromethyl)cyclopropyl)-1H-pyrazol-5-yl)urea], the concentration for half-maximal inhibition (IC50) in experiment [1] is under 250 nM. Also, the concentration giving a half-maximal response (EC50) with A375 cells fell in the range of 500 to 1000 nM. Also, the values for the Kd on RAF kinases [2], at RAF kinases [3] and at RAF kinases [4] were over 1000 nM, over 1000 nM and 500 to 1000 nM, respectively.
Regarding `COc1cc2ncnc(Oc3cccc(NC(=O)Nc4cc(Cl)cc(C(F)(F)F)c4)c3)c2cc1OC` [Ex 140, 1-(3-chloro-5-(trifluoromethyl)phenyl)-3-(3-(6,7-dimethoxyquinazolin-4-yloxy)phenyl)urea], the half-maximal inhibitory concentration (IC50) in experiment [1] is over 1000 nM. Also, in the experiment on A375 cells, the EC50 was over 1000 nM. For the same compound, the dissociation constant (Kd) on RAF kinases [2] and at RAF kinases [4] was 500 to 1000 nM each time.
Take `COc1cc2ncnc(Oc3cccc(NC(=O)Nc4cc(C(F)(F)F)ccc4Cl)c3)c2cc1OC` [Ex 142, 1-(2-chloro-5-(trifluoromethyl)phenyl)-3-(3-(6,7-dimethoxyquinazolin-4-yloxy)phenyl)urea]: the half-maximal inhibitory concentration (IC50) in experiment [1] is over 1000 nM. The 50% effective concentration (EC50) in the experiment on A375 cells is over 1000 nM. Also, the equilibrium dissociation constant (Kd) on RAF kinases [2] and on RAF kinases [4] was 250 to 500 nM throughout.
Turning to `COc1cc2ncnc(Oc3cccc(NC(=O)Nc4nccc(C(F)(F)F)n4)c3)c2cc1OC` [Ex 143, 1-(3-(6,7-dimethoxyquinazolin-4-yloxy)phenyl)-3-(4-(trifluoromethyl)pyrimidin-2-yl)urea], in experiment [1], the half-maximal inhibitory concentration (IC50) was over 1000 nM. Further, the EC50 in the experiment on A375 cells was over 1000 nM. For the same compound, the Kd at RAF kinases [2] and on RAF kinases [4] was 250 to 500 nM each time.
As to `COCCOc1cc(NC(=O)Nc2cccc(Oc3ncnc4cc(OC)c(OC)cc34)c2)ccc1C(F)(F)F` [Ex 147, 1-(3-(6,7-dimethoxyquinazolin-4-yloxy)phenyl)-3-(3-(2-methoxyethoxy)-4-(trifluoromethyl)phenyl)urea], the half-maximal inhibitory concentration (IC50) in experiment [1] is over 1000 nM. Also, in the experiment on A375 cells, the concentration for a half-maximal effect (EC50) is over 1000 nM. Besides, the dissociation constant Kd on RAF kinases [2] lay within 500 to 1000 nM; at RAF kinases [4], 250 to 500 nM.
As for `COc1cc2ncnc(Oc3cccc(NC(=O)Nc4ccc(C(F)(F)F)c(F)c4)c3)c2cc1OC` [Ex 150, 1-(3-(6,7-dimethoxyquinazolin-4-yloxy)phenyl)-3-(3-fluoro-4-(trifluoromethyl)phenyl)urea], the half-maximal inhibitory concentration (IC50) in experiment [1] was over 1000 nM. Further, the concentration giving a half-maximal response (EC50) in the experiment on A375 cells was over 1000 nM. The Kd on RAF kinases [2] was in the range of 500 to 1000 nM; on RAF kinases [3], 500 to 1000 nM; on RAF kinases [4] it was 250 to 500 nM.
In the case of `COc1cc2ncnc(Oc3cccc(NC(=O)Nc4cc(C5CCCC5)no4)c3)c2cc1OC` [Ex 163, 1-(3-cyclopentylisoxazol-5-yl)-3-(3-(6,7-dimethoxyquinazolin-4-yloxy)phenyl)urea], the concentration for half-maximal inhibition (IC50) in experiment [1] is over 1000 nM. In addition, the EC50 in the experiment on A375 cells was over 1000 nM. Besides, the results for the equilibrium dissociation constant (Kd) at RAF kinases [2] and on RAF kinases [4] were 500 to 1000 nM and 250 to 500 nM, respectively.
For the compound `COc1cc2ncnc(Sc3cccc(NC(=O)Nc4ccc(C(C)(C)C)cc4)c3)c2cc1OC` [Ex 174, 1-(4-tert-butylphenyl)-3-(3-(6,7-dimethoxyquinazolin-4-ylthio)phenyl)urea], the IC50 in experiment [1] is over 1000 nM. Further, in the experiment on A375 cells, the EC50 was over 1000 nM. For the same compound, the dissociation constant (Kd) at RAF kinases [2] and on RAF kinases [4] was 250 to 500 nM throughout.
Take `COc1cc2ncnc(Sc3cccc(NC(=O)Nc4ccc(C(F)(F)F)c(F)c4)c3)c2cc1OC` [Ex 188, 1-(3-(6,7-dimethoxyquinazolin-4-ylthio)phenyl)-3-(3-fluoro-4-(trifluoromethyl)phenyl)urea]: the half-maximal inhibitory concentration (IC50) in experiment [1] was over 1000 nM. Besides, in the experiment with A375 cells, the EC50 is over 1000 nM. Further, the figures for the Kd at RAF kinases [2] and at RAF kinases [4] were 500 to 1000 nM and 250 to 500 nM, respectively.
Regarding `COc1cc2ncnc(Sc3cccc(NC(=O)Nc4cc(CN5CCOCC5)cc(C(F)(F)F)c4)c3)c2cc1OC` [Ex 189, 1-(3-(6,7-dimethoxyquinazolin-4-ylthio)phenyl)-3-(3-(morpholinomethyl)-5-(trifluoromethyl)phenyl)urea], in experiment [1], the IC50 lay in the range of 500 to 1000 nM. In addition, in the experiment with A375 cells, the concentration giving a half-maximal response (EC50) lay in the range of 500 to 1000 nM. The Kd on RAF kinases [2] lay in the range of 500 to 1000 nM; at RAF kinases [4], 250 to 500 nM.
For the compound `COCCOc1cc2ncnc(Oc3cccc(NC(=O)Nc4cc(C(C)(C)C)nn4-c4ccccc4)c3)c2cc1OC` [Ex 210, 1-(3-tert-butyl-1-phenyl-1H-pyrazol-5-yl)-3-(3-(6-methoxy-7-(2-methoxyethoxy)quinazolin-4-yloxy)phenyl)urea], the half-maximal inhibitory concentration (IC50) in experiment [1] is under 250 nM. Besides, the dissociation constant (Kd) on RAF kinases [2], at RAF kinases [3] and on RAF kinases [4] was over 1000 nM in each case.
On to `COCCOc1cc2ncnc(Sc3cccc(NC(=O)Nc4cc(C(C)(C)C)nn4-c4ccc(C)cc4)c3)c2cc1OC` [Ex 277, 1-(3-tert-butyl-1-p-tolyl-1H-pyrazol-5-yl)-3-(3-(6-methoxy-7-(2-methoxyethoxy)quinazolin-4-ylthio)phenyl)urea], for which the half-inhibitory concentration (IC50) in experiment [1] was under 250 nM. Moreover, the Kd is over 1000 nM at RAF kinases [2], over 1000 nM at RAF kinases [3] and 250 to 500 nM at RAF kinases [4].
